As usually defined, the inhibition is the relative decrease from the control value, in per cent.

The target of the assay is T1, human vasopressin V1a receptor subtype (Homo sapiens, UniProt P37288).
T1 construct: host or cells: CHO cells, stably transfected (pZeoSV vector for the Thibonnier line)
T1 sequence (P37288 whole entry): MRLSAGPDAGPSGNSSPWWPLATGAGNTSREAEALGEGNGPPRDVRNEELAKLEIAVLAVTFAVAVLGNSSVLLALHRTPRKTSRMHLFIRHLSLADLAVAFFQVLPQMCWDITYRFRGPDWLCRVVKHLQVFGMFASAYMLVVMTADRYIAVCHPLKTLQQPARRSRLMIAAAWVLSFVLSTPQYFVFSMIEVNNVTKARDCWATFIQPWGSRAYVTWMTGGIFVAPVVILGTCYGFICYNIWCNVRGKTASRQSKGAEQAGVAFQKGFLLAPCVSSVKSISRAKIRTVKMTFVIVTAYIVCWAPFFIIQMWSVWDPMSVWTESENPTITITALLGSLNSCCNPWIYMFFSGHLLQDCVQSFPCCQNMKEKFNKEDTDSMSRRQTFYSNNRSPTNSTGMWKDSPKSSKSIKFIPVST
The assay can be described thus: Vasopressin binding in CHO cell membranes expressing human vasopressin V1a subtype receptors ([3H]Manning ligand radioligand binding). The conditions noted are these: 100 nM. Here is the method:
Vasopressin Binding in Chinese Hamster Ovary Cell Membranes Expressing Human Vasopressin V1a Subtype Receptors
The trypsin is removed by aspiration and the cells dislodged by tapping. Cell Culture medium (e.g. 30 mL for 1:30 split) is immediately added and mixed well to inactivate trypsin. 1 mL of detached cells is added to new culture flasks containing fresh cell culture medium (e.g., into 25 mL per T-150 flask), and mixed gently. The cells are incubated at 37° C. in 5% CO2. The medium is changed at 3 to 4 days interval (or as appropriate). […] All steps are done under sterile conditions.
The cells are washed twice gently with Hank's Balanced Salt solution (e.g,. use 10 mL per T-150 flask). […] The contents are transferred to centrifuge tubes (50 mL) kept in an ice bath. All subsequent steps are done at 4° C. The tubes are centrifuged at 300×g for 15 min (1380 rpm on SORVAL, Model RT6000D, using the rotor for 50 mL tubes). The supernatant is discarded and the cells suspended in homogenizing buffer(10 mM Tris-HCl containing 0.25 M sucrose and 1 mM EDTA, pH 7.4) ensuring that the volume of the buffer is about ten times the volume of the cell pellet. The cells are pooled into a centrifuge tube (50 mL) and homogenized with Polytron at setting 6 for 10 sec. The homogenate is transferred into a Potter-Elvjehm homogenizer and homogenized with 3 strokes. The homogenate is centrifuged at 1500×g for 10 min at 4° C. (3100 rpm using SORVAL, model RT6000D, using the rotor for 50 mL tubes). The pellet is discarded. The supernatant is centrifuged at 100,000×g for 60 min. at 4° C. (Beckman L8-80M ultracentrifuge; spin at 37,500 rpm with rotor type 70 Ti for 50 mL tubes; 38,000 rpm with type 80Ti for 15 mL tubes; or 35,800 rpm with rotor type 45Ti). The supernantant is discarded and the pellet suspended in 3 to 4 mL of Tris buffer (50 mM TRIS-HCl, pH 7.4). The protein content is estimated by the Bradford or Lowry method. The volume of the membrane suspension is adjusted with the membrane buffer (50 mM Tris-HCl containing 0.1% BSA and 0.1 mM PMSF) to give 3.0 mg/mL (or as appropriate) of protein. The membranes are aliquoted and stored at −70° C.
In wells of a 96-well format microtiter plate, is added 90, 110 or 130 μL (to make up a final volume of 200 μL) of assay buffer containing 50 mM of Tris-HCl (pH 7.4), BSA (heat inactivated, protease-free), […], 1 mg % aprotinin, 1 mg % leupeptin, 2 mg % 1,10-phenanthroline, 10 mg % trypsin inhibitor, and 0.1 mM PMSF. The inhibitors are added on the day of the experiment. The components are mixed at room temperature, and then kept in ice bath following adjustment of the pH to 7.4. […] 20 μL of 50% DMSO is added for Manning and other peptide ligands and the assay buffer volume is adjusted accordingly. To each well is added 50 μL of frozen membrane suspension thawed immediately prior to use and diluted in the assay buffer to the required concentration (equivalent to 25 to 50 μg of protein/well as needed). 20 μL of 8 nM [^3H]Manning ligand in the assay buffer, prepared just before use, is added, and incubated at room temperature for 60 min. shaking the plate on a mechanical shaker for the first 15 min. The incubation is stopped by rapid filtration of the plate contents followed by wash with ice-cold buffer (50 mM Tris-HCl, pH 7.4) using a cell harvester (Tomtek and Printed filtermat-B filter paper). The filter paper is thoroughly dried (7–12 min. in a microwave oven) and impregnated with MeltiLex B/H melt-on scintillation wax sheets and the radioactivity counted in a betaplate scintillation counter.
Binding data is either reported as percent inhibition at a certain concentration or if an IC50 was calculated, as a nanomolar concentration.
Regarding `COc1ccccc1-c1ccc(C(=O)N2Cc3ccc(C(=O)N(C)CCc4ccccn4)n3Cc3ccccc32)cc1OC` [Example 64, 10-[(2,2′-Dimethoxy-[1,1′-biphenyl]-4-yl)carbonyl]-N-methyl-N-[2-(2-pyridinyl)ethyl]-10,11-dihydro-5H-pyrrolo[2,1-c][1,4]benzodiazepine-3-carboxamide], the inhibition at 0.1 µM came out at 21%.
Same read-out and setting: for `COc1cc(C(=O)N2Cc3ccc(C(=O)N(C)CCc4ccccn4)n3Cc3ccccc32)ccc1-n1c(C)ccc1C` [Example 144, 10-[4-(2,5-Dimethyl-1H-pyrrol-1-yl)-3-methoxybenzoyl]-N-methyl-N-[2-(pyridin-2-yl)ethyl]-10,11-dihydro-5H-pyrrolo[2,1-c][1,4]benzodiazepine-3-carboxamide] the value was 11%; for `COc1cc(C(=O)N2Cc3ccc(C(=O)N4CCN(c5ccccn5)CC4)n3Cc3ccccc32)ccc1-n1c(C)ccc1C` [Example 145, {10-[4-(2,5-Dimethyl-1H-pyrrol-1-yl)-3-methoxybenzoyl]-10,11-dihydro-5H-pyrrolo[2,1-c][1,4]benzodiazepin-3-yl}[4-(pyridin-2-yl)-1-piperazinyl]methanone], -1%.
Same read-out and setting: the figure for `COc1ccccc1-c1ccc(C(=O)N2Cc3ccc(C(=O)NCCc4ccccn4)n3Cc3ccccc32)cc1OC` [Example 58, 10-[(2,2′-Dimethoxy-[1,1′-biphenyl]-4-yl)carbonyl]-N-[2-(2-pyridinyl)ethyl]-10,11-dihydro-5H-pyrrolo[2,1-c][1,4]benzodiazepine-3-carboxamide] is 9%.
In the case of `COc1cc(C(=O)N2Cc3ccc(C(=O)NCc4cccnc4)n3Cc3ccccc32)ccc1-c1cccc2ccccc12` [Example 44, 10-[3-Methoxy-4-(naphthalen-1-yl)benzoyl]-N-(3-pyridinylmethyl)-10,11-dihydro-5H-pyrrolo[2,1-c][1,4]benzodiazepine-3-carboxamide], the inhibition at 0.1 µM was determined as 11%.
On the same count and under the same terms, the figure for `COc1cc(C(=O)N2Cc3ccc(C(=O)NCc4ccccn4)n3Cc3ccccc32)ccc1-c1cccc2ccccc12` [Example 31, 10-[3-Methoxy-4-(naphthalen-1-yl)benzoyl]-N-(2-pyridinylmethyl)-10,11-dihydro-5H-pyrrolo[2,1-c][1,4]benzodiazepine-3-carboxamide] is 6%.
As to `COc1cc(C(=O)N2Cc3ccc(C(=O)N4CCN(c5ccccn5)CC4)n3Cc3ccccc32)ccc1-c1cccc2ccccc12` [Example 83], the “V1a % inhibition @ 100 nM” value came out at 9%.
For `COc1cccc(-c2ccc(C(=O)N3Cc4ccc(C(=O)NCc5ccccn5)n4Cc4ccccc43)cc2C)c1` [Example 25, 10-[(3′-Methoxy-2-methyl-[1,1′-biphenyl]-4-yl)carbonyl]-N-(2-pyridinylmethyl)-10,11-dihydro-5H-pyrrolo[2,1-c][1,4]benzodiazepine-3-carboxamide], the inhibition at 0.1 µM came to 21%.
The same measure, in the same setting: the figure for `COc1cccc(-c2ccc(C(=O)N3Cc4ccc(C(=O)N5CCN(c6ccncc6)CC5)n4Cc4ccccc43)cc2C)c1` [Example 115, {10-[(3′-Methoxy-2-methyl-[1,1′-biphenyl]-4-yl)carbonyl]-10,11-dihydro-5H-pyrrolo[2,1-c][1,4]benzodiazepin-3-yl}[4-(4-pyridinyl)-1-piperazinyl]methanone] is 22%; for `COc1cc(-c2ccccc2C)c(Cl)cc1C(=O)N1Cc2ccc(C(=O)N(C)CCc3ccncc3)n2Cc2ccccc21` [Example 132, 10-[(6-Chloro-3-methoxy-2′-methyl-[1,1′-biphenyl]-4-yl)carbonyl]-N-methyl-N-[2-(4-pyridinyl)ethyl]-10,11-dihydro-5H-pyrrolo[2,1-c][1,4]benzodiazepine-3-carboxamide] it is 26%.
The same measure, in the same setting: for `COc1cc(-c2ccccc2C)c(Cl)cc1C(=O)N1Cc2ccc(C(=O)NCCc3ccccn3)n2Cc2ccccc21` [Example 55, 10-[(6-Chloro-3-methoxy-2′-methyl-[1,1′-biphenyl]-4-yl)carbonyl]-N-[2-(2-pyridinyl)ethyl]-10,11-dihydro-5H-pyrrolo[2,1-c][1,4]benzodiazepine-3-carboxamide] the value was -7%; for `COc1ccccc1-c1ccc(C(=O)N2Cc3ccc(C(=O)NCc4cccnc4)n3Cc3ccccc32)cc1` [Example 39, 10-[(2′-Methoxy-[1,1′-biphenyl]-4-yl)carbonyl]-N-(3-pyridinylmethyl)-10,11-dihydro-5H-pyrrolo[2,1-c][1,4]benzodiazepine-3-carboxamide], 10%; for `COc1cc(C(=O)N2Cc3ccc(C(=O)N(C)CCc4ccncc4)n3Cc3ccccc32)ccc1-c1ccccc1C` [Example 131, 10-[(2-Methoxy-2′-methyl-[1,1′-biphenyl]-4-yl)carbonyl]-N-methyl-N-[2-(4-pyridinyl)ethyl]-10,11-dihydro-5H-pyrrolo[2,1-c][1,4]benzodiazepine-3-carboxamide], 83%.
Still for that read-out and setting: for `COc1ccccc1-c1ccc(C(=O)N2Cc3ccc(C(=O)N4CCCCC4c4cccnc4)n3Cc3ccccc32)cc1C` (stereo not shown) [Example 138, {10-[(2′-Methoxy-2-methyl-[1,1′-biphenyl]-4-yl)carbonyl]-10,11-dihydro-5H-pyrrolo[2,1-c][1,4]benzodiazepin-3-yl}[2-(3-pyridinyl)-1-piperidinyl]methanone] the value was 8%; for `COc1cc(C(=O)N2Cc3ccc(C(=O)N(C)Cc4cccnc4)n3Cc3ccccc32)ccc1-c1ccccc1C` [Example 106, 10-[(2-Methoxy-2′-methyl-[1,1′-biphenyl]-4-yl)carbonyl]-N-methyl-N-(3-pyridinylmethyl)-10,11-dihydro-5H-pyrrolo[2,1-c][1,4]benzodiazepine-3-carboxamide], 68%.
Turning to `Cc1ccccc1-c1ccc(C(=O)N2Cc3ccc(C(=O)N4CCN(c5ccncc5)CC4)n3Cc3ccccc32)cc1` [Example 117, {10-[(2′-Methyl-[1,1′-biphenyl]-4-yl)carbonyl]-10,11-dihydro-5H-pyrrolo[2,1-c][1,4]benzodiazepin-3-yl}[4-(4-pyridinyl)-1-piperazinyl]methanone], the inhibition at 0.1 µM was 1%.
The same measure, in the same setting: the figure for `COc1ccccc1-c1ccc(C(=O)N2Cc3ccc(C(=O)N4CCN(c5ccncc5)CC4)n3Cc3ccccc32)cc1OC` [Example 122, {10-[(2,2′-Dimethoxy-[1,1′-biphenyl]-4-yl)carbonyl]-10,11-dihydro-5H-pyrrolo[2,1-c][1,4]benzodiazepin-3-yl}[4-(4-pyridinyl)-1-piperazinyl]methanone] is 9%.
Take `COc1ccccc1-c1ccc(C(=O)N2Cc3ccc(C(=O)N4CCCCC4c4cccnc4)n3Cc3ccccc32)cc1OC` (stereo not shown) [Example 141, {10-[(2,2′-Dimethoxy-[1,1′-biphenyl]-4-yl)carbonyl]-10,11-dihydro-5H-pyrrolo[2,1-c][1,4]benzodiazepin-3-yl}[2-(3-pyridinyl)-1-piperidinyl]methanone]: the inhibition at 0.1 µM is 9%.
Still for that read-out and setting: the figure for `COc1cc(C(=O)N2Cc3ccc(C(=O)NCCc4ccccn4)n3Cc3ccccc32)ccc1-c1ccccc1C` [Example 54, 10-[(2-Methoxy-2′-methyl-[1,1′-biphenyl]-4-yl)carbonyl]-N-[2-(2-pyridinyl)ethyl]-10,11-dihydro-5H-pyrrolo[2,1-c][1,4]benzodiazepine-3-carboxamide] is 30%.
